Patent publication US20230148599A1, “FUNGICIDAL MIXTURES CONTAINING PYRAZOLE DERIVATIVES” (FMC Corporation, priority 2020, published 2023)

Legend:
Type in all cases: in vivo
Settings in all cases: 50 ppm, 100 = 100% disease control, 0 = no control
Septoria tritici = assay: Test A: wheat leaf blotch, preventive spray on wheat seedlings
How it was run: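 Preventive test: one day after spraying seedlings to run-off (concentrations in ppm; acetone/water, 250 ppm PEG400), Septoria tritici spores applied. Scored after 48 h humid incubation at 24 °C plus 17 days at 20 °C, as percent disease control versus untreated controls (100 = full control).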

[1] = system: Puccinia recondita f. sp. tritici; assay: Test B: wheat leaf rust, preventive spray on wheat seedlings
How it was run: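 Preventive test: compound in acetone/water 50/50 with 250 ppm PEG400 was sprayed onto wheat seedlings one day before inoculation with leaf rust spores. After 24 h in saturated air and 7 days in a growth chamber, both at 20 °C, disease control was scored from 0 to 100 against controls.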

[2] = system: Blumeria graminis f. sp. tritici; assay: Test C: wheat powdery mildew, preventive spray on wheat seedlings
How it was run: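 Preventive test: inoculation with spore dust came one day after spraying seedlings to run-off with ppm suspensions in acetone/water (50/50) plus 250 ppm PEG400 surfactant. Visual ratings after 8 days' incubation at 20° C give percent disease control relative to controls.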

Phakopsora pachyrhizi = assay: Test D: Asian soybean rust, preventive spray on soybean seedlings
How it was run: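 Compounds in acetone/water (50/50) with 250 ppm PEG400, dosed in ppm, sprayed to run-off on soybean seedlings; inoculated with P. pachyrhizi spores next day. Held 24 h at 22 °C in saturated air, then 8 days at 22 °C; visual rating of disease control, 0–100, relative to untreated controls.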

Botrytis cinerea = assay: Test E: tomato Botrytis, preventive spray on tomato seedlings
How it was run: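 Preventive test: seedlings sprayed to run-off with compound in acetone/water (50/50) plus 250 ppm PEG400, inoculated one day later with B. cinerea spores. Held 48 h saturated at 20° C, then 3 days at 24° C; disease control scored visually from 0 to 100 versus controls.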

Alternaria solani = assay: Test F: tomato early blight, preventive spray on tomato seedlings
How it was run: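 Preventive test: one day after the compound spray, seedlings were inoculated with A. solani, incubated saturated at 27 °C for 48 h, then kept at 20 °C for 3 days. Test suspensions contained acetone/water 50/50 with 250 ppm PEG400 surfactant. Visual ratings run from 0 (no control) to 100 (full control).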

Row | Structure (SMILES) | Test A disease control rating (Septoria tritici) | Test B disease control rating [1] | Test C disease control rating [2] | Test D disease control rating (Phakopsora pachyrhizi) | Test E disease control rating (Botrytis cinerea) | Test F disease control rating (Alternaria solani)
1 | COc1cc(F)c(-c2c(C)nn(C)c2Nc2ccccc2[N+](=O)[O-])c(F)c1 [compound 147] | 96% | 86% | 97% | 0% | 100% | 99%
2 | Cc1nn(C)c(Nc2ccccc2[N+](=O)[O-])c1-c1c(F)cc(F)cc1Cl [compound 148] | 100% | 99% | 98% | 13% | 99% | 100%
3 | Cc1nn(C)c(Nc2ccccc2[N+](=O)[O-])c1-c1c(F)cc(F)cc1F [compound 149] | 100% | 80% | 97% | 0% | 99% | 96%
4 | COc1ccc(Nc2c(-c3c(F)cc(C#N)cc3F)c(C)nn2C)c([N+](=O)[O-])c1 [compound 150] | 100% | 100% | 98% | 13% | 100% | 99%
5 | Cc1nn(C)c(Nc2c(F)cccc2[N+](=O)[O-])c1-c1c(F)cc(Cl)cc1F [compound 151] | 100% | 100% | 99% | 0% | 99% | 99%
6 | Cc1nn(C)c(Nc2c(Cl)cccc2[N+](=O)[O-])c1-c1c(F)cc(F)cc1Cl [compound 152] | 99% | 100% | 98% | 91% | 99% | 92%
7 | Cc1cccc([N+](=O)[O-])c1Nc1c(-c2c(F)cc(F)cc2Cl)c(C)nn1C [compound 153] | 99% | 100% | 99% | 73% | 99% | 72%
8 | Cc1nn(C)c(Nc2ccccc2[N+](=O)[O-])c1-c1c(F)cc(F)cc1Br [compound 154] | 99% | 80% | 98% | 0% | 99% | 51%
9 | Cc1nn(C)c(Nc2c(F)cc(Br)cc2[N+](=O)[O-])c1-c1ccc(C#N)cc1Cl [compound 155] | 99% | 99% | 90% | 0% | 100% | 93%
10 | Cc1cc(Cl)c(Nc2c(-c3ccc(C#N)cc3Cl)c(C)nn2C)c([N+](=O)[O-])c1 [compound 156] | 91% | 91% | 66% | 0% | 0% | 0%
11 | Cc1cccc([N+](=O)[O-])c1Nc1c(-c2ccc(C#N)cc2Cl)c(C)nn1C [compound 157] | 100% | 97% | 76% | 0% | 9% | 0%
12 | Cc1nn(C)c(Nc2c(Cl)cccc2[N+](=O)[O-])c1-c1c(F)cc(F)cc1F [compound 158] | 99% | 100% | 99% | 87% | 99% | 83%
13 | COc1ccc(Nc2c(-c3c(F)cc(F)cc3F)c(C)nn2C)c([N+](=O)[O-])c1 [compound 159] | 100% | 100% | 100% | 13% | 99% | 99%
14 | COc1cc(F)c(-c2c(C)nn(C)c2Nc2c(Cl)cccc2[N+](=O)[O-])c(F)c1 [compound 160] | 98% | 100% | 96% | 86% | 100% | 99%
15 | COc1cc(F)c(-c2c(C)nn(C)c2Nc2ccc(OC)cc2[N+](=O)[O-])c(F)c1 [compound 161] | 100% | 100% | 100% | 0% | 100% | 99%
16 | COc1cc(F)c(-c2c(C)nn(C)c2Nc2c(C)cccc2[N+](=O)[O-])c(F)c1 [compound 162] | 100% | 100% | 99% | 77% | 97% | 98%
17 | Cc1nn(C)c(Nc2c(Cl)cccc2[N+](=O)[O-])c1-c1c(F)cc(F)cc1Br [compound 163] | 99% | 100% | 98% | 78% | 88% | 76%
18 | COc1ccc(Nc2c(-c3c(F)cc(F)cc3Br)c(C)nn2C)c([N+](=O)[O-])c1 [compound 164] | 100% | 100% | 98% | 0% | 100% | 99%
19 | COc1cc(F)c(Nc2c(-c3ccc(F)cc3Br)c(C)nn2C)c([N+](=O)[O-])c1 [compound 165] | 99% | 100% | 98% | 94% | 100% | 100%
20 | COc1cc(F)c(Nc2c(-c3ccc(C#N)cc3Cl)c(C)nn2C)c([N+](=O)[O-])c1 [compound 166] | 99% | 100% | 98% | 98% | 99% | 100%
21 | Cc1cccc([N+](=O)[O-])c1Nc1c(-c2c(F)cc(F)cc2F)c(C)nn1C [compound 167] | 100% | 100% | 98% | 65% | 95% | 98%
22 | Cc1nn(C)c(Nc2ccccc2[N+](=O)[O-])c1-c1c(F)cc(Cl)cc1F [compound 168] | 100% | 74% | 97% | 0% | 99% | 40%
23 | Cc1cccc([N+](=O)[O-])c1Nc1c(-c2c(F)cc(F)cc2Br)c(C)nn1C [compound 169] | 100% | 100% | 100% | 0% | 98% | 0%
24 | CCc1nn(C)c(Nc2c(F)cccc2[N+](=O)[O-])c1-c1c(F)cc(Cl)cc1F [compound 170] | 100% | 99% | 99% | 0% | 100% | 99%
25 | CCc1nn(C)c(Nc2c(F)cc(Br)cc2[N+](=O)[O-])c1-c1ccc(F)cc1F [compound 171] | 100% | 91% | 99% | 0% | 97% | 88%
26 | CCc1nn(C)c(Nc2ccc(OC)cc2[N+](=O)[O-])c1-c1ccc(F)cc1Cl [compound 173] | 100% | 100% | 98% | 0% | 98% | 93%
